From ChEMBL document CHEMBL1201862, “PubChem BioAssay data set” (2004)
The source made the active and inactive calls.

Assays:
[1] = reduction of Shn3 3'UTR-driven luciferase in osteoblasts – cell-based, Clone20 osteoblasts, firefly luciferase, cherry-picked, dose response (AID 624132); format: functional;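 also: firefly luciferase luminescence from reporter carrying the Shn3 3'UTR in osteoblasts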
[2] = loss of viability in HepG2 cells – cell-based, CellTiter-Glo, cherry-picked, cytotoxicity control for Shn3 inhibitor project, dose response (AID 624134); format: functional
[3] = non-specific 3'UTR reporter inhibition in Clone20-Shn3RL – cell-based, Renilla luciferase, cherry-picked, counter-screen for Shn3 inhibitor project, dose response (AID 624133); format: functional
[4] = viability of PTEN-deleted HCT116 cells – cell-based, HCT116 PTEN knockout, dose response (AID 1047); format: functional;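 also: HCT116 colon tumor cells with PTEN knocked out; cells exposed to compound for 60 hours before readout; potency for loss of cell viability measured by luminescence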
[5] = viability of HCT116 lacking mutant beta-catenin – cell-based, human colon tumor, dose response (AID 1045); format: functional;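 also: HCT116 colon tumor cells with beta catenin knocked out; cells exposed to compound for 60 hours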
Vero = experiment: cells; format: functional; conditions: Chlorocebus sabaeus
Caspase-3 = target: T1, Caspase-3 (Homo sapiens, UniProt P42574); format: functional;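 also: Dose-response selectivity test against caspase-3 for candidate inhibitors of sentrin-specific proteases (SENPs)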
T1 sequence (P42574 whole entry): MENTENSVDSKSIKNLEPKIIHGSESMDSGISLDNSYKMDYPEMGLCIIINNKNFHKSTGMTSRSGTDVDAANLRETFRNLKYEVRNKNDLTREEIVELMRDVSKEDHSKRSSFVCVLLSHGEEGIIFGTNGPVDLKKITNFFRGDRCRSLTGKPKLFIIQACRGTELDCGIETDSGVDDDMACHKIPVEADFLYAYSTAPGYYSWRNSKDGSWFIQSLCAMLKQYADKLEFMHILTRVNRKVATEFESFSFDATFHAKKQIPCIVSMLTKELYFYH

[6] = target: T2, Sentrin-specific protease 7 (Homo sapiens, UniProt Q9BQF6); format: functional;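 also: Luminescence-based dose-response confirmation of ultra-high-throughput screening hits, measuring inhibition of SENP7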
T2 sequence (Q9BQF6 whole entry): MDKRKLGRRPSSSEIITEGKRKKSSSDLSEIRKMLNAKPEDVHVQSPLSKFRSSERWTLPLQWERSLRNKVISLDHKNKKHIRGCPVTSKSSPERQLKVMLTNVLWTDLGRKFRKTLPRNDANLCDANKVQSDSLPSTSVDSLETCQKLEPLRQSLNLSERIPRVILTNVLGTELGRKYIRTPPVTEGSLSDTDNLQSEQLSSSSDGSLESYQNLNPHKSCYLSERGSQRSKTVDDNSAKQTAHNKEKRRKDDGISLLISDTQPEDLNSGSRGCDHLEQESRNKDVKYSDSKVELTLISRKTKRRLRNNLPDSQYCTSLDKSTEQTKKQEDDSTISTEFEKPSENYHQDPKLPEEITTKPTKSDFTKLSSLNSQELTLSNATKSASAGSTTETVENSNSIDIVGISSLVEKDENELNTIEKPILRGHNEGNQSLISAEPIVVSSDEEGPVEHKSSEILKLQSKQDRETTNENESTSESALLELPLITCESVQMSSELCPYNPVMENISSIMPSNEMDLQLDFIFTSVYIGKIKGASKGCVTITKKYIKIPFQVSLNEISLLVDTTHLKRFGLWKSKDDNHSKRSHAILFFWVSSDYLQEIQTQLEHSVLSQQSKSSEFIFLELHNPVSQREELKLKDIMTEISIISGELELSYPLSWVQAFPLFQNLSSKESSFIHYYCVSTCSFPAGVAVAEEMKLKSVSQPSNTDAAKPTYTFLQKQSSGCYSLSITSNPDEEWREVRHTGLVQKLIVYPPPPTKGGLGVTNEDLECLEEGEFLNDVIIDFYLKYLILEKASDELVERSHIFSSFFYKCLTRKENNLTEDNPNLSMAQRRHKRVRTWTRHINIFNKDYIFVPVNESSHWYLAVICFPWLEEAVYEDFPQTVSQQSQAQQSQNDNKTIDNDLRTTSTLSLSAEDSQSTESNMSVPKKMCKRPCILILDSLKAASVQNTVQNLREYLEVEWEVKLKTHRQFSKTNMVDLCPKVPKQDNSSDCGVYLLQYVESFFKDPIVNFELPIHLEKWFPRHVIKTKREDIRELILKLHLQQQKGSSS

[7] = target: T3, Sentrin-specific protease 6 (Homo sapiens, UniProt Q9GZR1); format: functional;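 also: Luminescence-based dose-response confirmatory assay of SENP6 inhibition, following up an ultra-high-throughput screen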
T3 sequence (Q9GZR1 whole entry): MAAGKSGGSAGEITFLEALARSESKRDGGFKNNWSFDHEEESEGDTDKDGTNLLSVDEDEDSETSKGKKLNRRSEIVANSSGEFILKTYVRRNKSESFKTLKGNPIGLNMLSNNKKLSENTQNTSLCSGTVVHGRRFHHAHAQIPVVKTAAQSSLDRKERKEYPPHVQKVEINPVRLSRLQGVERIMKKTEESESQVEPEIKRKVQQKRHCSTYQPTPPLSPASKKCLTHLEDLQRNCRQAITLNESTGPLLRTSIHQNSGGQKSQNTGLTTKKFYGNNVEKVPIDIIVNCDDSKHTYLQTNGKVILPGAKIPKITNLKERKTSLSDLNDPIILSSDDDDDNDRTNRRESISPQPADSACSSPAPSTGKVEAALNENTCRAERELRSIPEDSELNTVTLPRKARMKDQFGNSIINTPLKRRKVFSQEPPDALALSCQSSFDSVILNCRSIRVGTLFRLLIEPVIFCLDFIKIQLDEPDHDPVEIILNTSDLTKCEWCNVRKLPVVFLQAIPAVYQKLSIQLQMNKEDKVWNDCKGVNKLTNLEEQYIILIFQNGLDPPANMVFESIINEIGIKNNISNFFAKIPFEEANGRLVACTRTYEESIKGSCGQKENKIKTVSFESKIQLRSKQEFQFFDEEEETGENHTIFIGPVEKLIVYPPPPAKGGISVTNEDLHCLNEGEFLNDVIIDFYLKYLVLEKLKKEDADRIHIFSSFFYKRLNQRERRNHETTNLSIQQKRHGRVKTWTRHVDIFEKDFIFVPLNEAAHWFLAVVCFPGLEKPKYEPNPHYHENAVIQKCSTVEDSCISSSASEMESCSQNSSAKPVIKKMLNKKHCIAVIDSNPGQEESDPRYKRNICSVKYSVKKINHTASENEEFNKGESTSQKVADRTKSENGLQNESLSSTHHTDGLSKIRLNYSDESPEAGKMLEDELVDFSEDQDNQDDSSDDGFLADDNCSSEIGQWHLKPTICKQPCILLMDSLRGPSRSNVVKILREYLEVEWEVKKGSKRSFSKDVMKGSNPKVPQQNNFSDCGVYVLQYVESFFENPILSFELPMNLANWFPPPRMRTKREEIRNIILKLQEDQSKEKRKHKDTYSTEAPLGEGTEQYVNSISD

[8] = target: T4, Sentrin-specific protease 8 (Homo sapiens, UniProt Q96LD8); format: functional;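 also: luminescence read-out of SENP8 inhibition, dose-response confirmation following an ultra-high-throughput screen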
T4 sequence (Q96LD8 whole entry): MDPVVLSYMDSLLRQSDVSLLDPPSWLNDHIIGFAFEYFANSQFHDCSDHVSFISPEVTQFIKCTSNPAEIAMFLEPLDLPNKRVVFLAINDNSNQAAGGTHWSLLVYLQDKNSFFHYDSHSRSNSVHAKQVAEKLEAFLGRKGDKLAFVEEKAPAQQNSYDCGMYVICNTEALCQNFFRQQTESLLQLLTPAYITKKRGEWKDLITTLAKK

cells = format: functional
Cytochrome P450 2C19 = Cytochrome P450 2C19 (Homo sapiens, UniProt P33261); experiment: Cytochrome panel assay with activity outcomes. Panel member name: p450-cyp2c19 Compounds with AC50 equal or less than 10 uM are considered active; format: functional; conditions: read-out: AC50
Cytochrome P450 2C9 = Cytochrome P450 2C9 (Homo sapiens, UniProt P11712)
HEK293 [9] = experiment: inhibition of NOD1-driven NF-kB reporter – cell-based, luminescence, uHTS, primary screen (AID 1578); format: functional; conditions: Homo sapiens
[10] = system: Streptococcus sp. 'group A'; experiment: Streptococcus pyogenes SK(-)GAS viability under kanamycin – luminescence, BacTiterGlo, confirmation, counter-screen for streptokinase expression inhibitor project, dose response (AID 1900); format: functional, organism-based
HEK293 [11] = experiment: cells; format: functional, cell-based; conditions: Homo sapiens
Streptokinase A = target: T5, Streptokinase A (Streptococcus pyogenes serotype M1, UniProt P10520); experiment: viability-normalized secreted streptokinase activity reduction – plasminogen activation absorbance, OD405, dose response (AID 1914); format: functional, Streptococcus pyogenes M1 GAS;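 also: secreted streptokinase activity via plasminogen activation per viability signal from cell pellet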
T5 sequence (P10520 whole entry): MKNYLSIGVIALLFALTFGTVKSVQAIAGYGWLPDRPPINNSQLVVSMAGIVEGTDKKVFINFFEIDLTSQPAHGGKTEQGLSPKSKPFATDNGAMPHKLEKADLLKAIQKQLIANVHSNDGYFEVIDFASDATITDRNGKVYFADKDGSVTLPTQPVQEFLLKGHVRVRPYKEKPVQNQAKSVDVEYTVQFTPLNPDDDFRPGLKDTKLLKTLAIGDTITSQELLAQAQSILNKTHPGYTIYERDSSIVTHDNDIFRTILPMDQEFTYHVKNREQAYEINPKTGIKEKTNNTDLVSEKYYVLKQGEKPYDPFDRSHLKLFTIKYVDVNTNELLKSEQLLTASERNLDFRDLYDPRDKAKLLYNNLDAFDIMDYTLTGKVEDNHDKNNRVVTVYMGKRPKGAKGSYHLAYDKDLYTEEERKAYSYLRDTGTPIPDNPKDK

HEK293 [12] = experiment: cells; format: functional, cell-based; conditions: Homo sapiens; remark: listed apart in the source
HEK293 [13] = experiment: NOD2 signaling inhibitors in MDP-stimulated cells, cell-based, uHTS, luminescence (AID 2001); format: functional; conditions: Homo sapiens
Streptococcus = experiment: GAS UMAA2166 growth inhibition – luminescence, BacTiterGlo, counter-screen for streptokinase expression inhibitor project, dose response (AID 1915); format: functional, organism-based;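 also: potency for reduction of bacterial viability or growth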
[14] = microbe, parasite or virus in culture; format: functional; conditions: Mycobacterium tuberculosis
[15] = NIH-3T3 fibroblast cytotoxicity, dose response, cytotoxicity control, cell-based, fluorescence, Alamar Blue, secondary assay (AID 2327); format: functional;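 also: NIH-3T3 mouse fibroblasts cultured with fluconazole at 8 µg/mL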
[16] = fluconazole-exposed Candida albicans growth modulators – fluorescence, retest, confirmation (AID 2467); format: functional, cell-based

Chain of Cytochrome P450 2C9 (P11712 whole entry): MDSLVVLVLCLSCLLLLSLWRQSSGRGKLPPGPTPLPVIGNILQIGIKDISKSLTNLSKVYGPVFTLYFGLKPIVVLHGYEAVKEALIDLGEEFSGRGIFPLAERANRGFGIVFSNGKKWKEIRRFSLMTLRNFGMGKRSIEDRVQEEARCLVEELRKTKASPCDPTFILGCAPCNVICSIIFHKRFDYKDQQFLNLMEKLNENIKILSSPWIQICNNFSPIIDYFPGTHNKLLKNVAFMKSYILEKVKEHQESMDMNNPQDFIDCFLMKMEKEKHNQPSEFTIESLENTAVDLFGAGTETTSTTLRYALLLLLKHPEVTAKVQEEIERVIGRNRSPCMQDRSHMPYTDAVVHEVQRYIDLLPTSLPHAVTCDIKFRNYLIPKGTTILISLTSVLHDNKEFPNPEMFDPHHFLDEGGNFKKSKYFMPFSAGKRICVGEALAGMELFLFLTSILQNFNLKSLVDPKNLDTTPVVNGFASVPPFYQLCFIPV
Chain of Cytochrome P450 2C19 (P33261 whole entry): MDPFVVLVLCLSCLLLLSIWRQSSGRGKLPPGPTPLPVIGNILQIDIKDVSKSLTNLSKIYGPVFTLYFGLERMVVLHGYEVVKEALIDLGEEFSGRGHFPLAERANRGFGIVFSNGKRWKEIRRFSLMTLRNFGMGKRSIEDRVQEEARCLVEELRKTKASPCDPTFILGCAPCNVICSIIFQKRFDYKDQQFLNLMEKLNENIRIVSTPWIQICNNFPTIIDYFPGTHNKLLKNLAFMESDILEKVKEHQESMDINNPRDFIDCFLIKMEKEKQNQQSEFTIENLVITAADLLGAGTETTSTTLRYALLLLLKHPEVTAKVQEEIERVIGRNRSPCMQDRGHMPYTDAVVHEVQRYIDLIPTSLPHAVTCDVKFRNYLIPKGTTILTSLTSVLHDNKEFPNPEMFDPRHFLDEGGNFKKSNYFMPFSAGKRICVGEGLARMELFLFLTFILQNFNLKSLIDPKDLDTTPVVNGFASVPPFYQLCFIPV

## Cc1ccc(NC(=O)CSc2ccc3c(c2)OCCO3)c(O)c1
[1]
  AC50: 0.343 µM (active)
[2]
  AC50: 7.27 µM (active)
[3]
  AC50: 0.525 µM (active)

## Cc1cccc(Nc2nnc(SCC(=O)NC(=O)Nc3ccc4c(c3)OCCO4)s2)c1
[4]
  EC50: 13 µM (active)
[5]
  EC50: 9.93 µM (active)
Vero
  CC50: > 25 µM (active)

## Cc1cccc(C(=O)Nc2cccc(C(=O)N/N=C/c3ccc4c(c3)OCO4)c2)c1
Caspase-3
  IC50: 13 µM (active)
[6]
  IC50: 14.2 µM (active)
[7]
  IC50: 15.2 µM (active)
[8]
  IC50: 35 µM (active)

## O=C(CC1(O)C(=O)N(Cc2cccc3ccccc23)c2ccccc21)c1cccnc1 (stereo not drawn)
Vero
  CC50: > 25 µM (active)

## COc1ccc(OC(=O)c2cc3ccccc3o2)cc1
Caspase-3
  IC50: 33 µM (active)
[6]
  IC50: 5.34 µM (active)
[7]
  IC50: > 100 µM (inactive)
[8]
  IC50: > 100 µM (inactive)
cells
  IC50: 16.6 µM (active)

## Cc1ccc(S(C)=NS(=O)(=O)c2ccc(C)cc2)cc1 (stereo not drawn)
Cytochrome P450 2C19
  AC50: 7.08 µM (inconclusive)
Cytochrome P450 2C9
  AC50: inconclusive

## Cn1c(O)c(N=NC(S)=Nc2ccccc2F)c2cc(S(=O)(=O)N3CCOCC3)ccc21
HEK293 [9]
  EC50: > 20 µM (inactive)
[10]
  EC50: 7.47 µM (active)
HEK293 [11]
  IC50: 19.1 µM (active)
Streptokinase A
  EC50: > 150 µM (not active)
HEK293 [12]
  IC50: > 20 µM (inactive)
HEK293 [13]
  IC50: 9.77 µM (active)
Streptococcus
  EC50: 44.2 µM (active)

## Cc1cccc(CNc2cc(-c3cccc(NS(C)(=O)=O)c3)ncn2)c1
Cytochrome P450 2C9
  AC50: inconclusive

## Cc1ccc(F)cc1CNC(=O)c1cc(COc2ccc3ncccc3c2)on1
[14]
  CC50: > 40 µM (active)
[1]
  AC50: 4.88 µM (active)
[2]
  AC50: 6.33 µM (active)
[3]
  AC50: 4.3 µM (active)

## O=C(C=Cc1ccccn1)c1ccccc1
Vero
  CC50: 9.58 µM (active)

## O=C(NCc1ccccc1)C1c2ccccc2Oc2ccccc21
[15]
  EC50: > 150 µM (inconclusive)
[16]
  EC50: 2.43 µM (active)
